Results as given in ChEMBL document CHEMBL4308841, “Synthesis, in vitro antiproliferative activity, and kinase inhibitory effects of pyrazole-containing diarylureas and diarylamides” (Eur J Med Chem, 2018).

Key:
A549 = experiment: Growth inhibition of human A549/ATCC cells incubated for 48 hrs by sulforhodamine B assay; assay type: functional, cell-based; settings: A549, 48 h
COLO 205 = experiment: Growth inhibition of human COLO205 cells incubated for 48 hrs by sulforhodamine B assay; assay type: functional, cell-based; settings: COLO 205, 48 h
HCT-116 = experiment: Growth inhibition of human HCT116 cells incubated for 48 hrs by sulforhodamine B assay; assay type: functional, cell-based; settings: HCT-116, 48 h
T47D = experiment: Growth inhibition of human T47D cells incubated for 48 hrs by sulforhodamine B assay; assay type: functional, cell-based
MDA-MB-468 [1] = experiment: Growth inhibition of human MDA-MB-468 cells incubated for 48 hrs by sulforhodamine B assay; assay type: functional, cell-based; settings: MDA-MB-468, 48 h
RPMI-8226 = experiment: Growth inhibition of human RPMI8226 cells assessed as cell growth at 0.01 uM incubated for 48 hrs by sulforhodamine B assay relative to control; assay type: functional; settings: RPMI-8226, 48 h, read-out: Activity
SF-268 = experiment: Growth inhibition of human SF268 cells assessed as cell growth at 0.01 uM incubated for 48 hrs by sulforhodamine B assay relative to control; assay type: functional; settings: SF-268, 48 h, read-out: Activity
SNB-19 = experiment: Growth inhibition of human SNB19 cells assessed as cell growth at 0.01 uM incubated for 48 hrs by sulforhodamine B assay relative to control; assay type: functional; settings: SNB-19, 48 h, read-out: Activity
LOX IMVI = experiment: Growth inhibition of human LOXIMVI cells assessed as cell growth at 0.01 uM incubated for 48 hrs by sulforhodamine B assay relative to control; assay type: functional; settings: read-out: Activity
UACC-62 = experiment: Growth inhibition of human UACC62 cells assessed as cell growth at 0.01 uM incubated for 48 hrs by sulforhodamine B assay relative to control; assay type: functional; settings: UACC-62, 48 h, read-out: Activity
OVCAR-5 = experiment: Growth inhibition of human OVCAR5 cells assessed as cell growth at 0.01 uM incubated for 48 hrs by sulforhodamine B assay relative to control; assay type: functional; settings: OVCAR-5, 48 h, read-out: Activity
MCF7 = experiment: Growth inhibition of human MCF7 cells assessed as cell growth at 0.01 uM incubated for 48 hrs by sulforhodamine B assay relative to control; assay type: functional; settings: MCF7, 48 h, read-out: Activity
K562 [2] = experiment: Growth inhibition of human K562 cells assessed as cell growth at 0.1 uM incubated for 48 hrs by sulforhodamine B assay relative to control; assay type: functional; settings: K562, 48 h, read-out: Activity
SNB-75 = experiment: Growth inhibition of human SNB75 cells assessed as cell growth at 0.1 uM incubated for 48 hrs by sulforhodamine B assay relative to control; assay type: functional; settings: SNB-75, 48 h, read-out: Activity
SK-MEL-5 [3] = experiment: Growth inhibition of human SK-MEL-5 cells assessed as cell growth at 0.1 uM incubated for 48 hrs by sulforhodamine B assay relative to control; assay type: functional; settings: SK-MEL-5, 48 h, read-out: Activity
NCI/ADR-RES = experiment: Growth inhibition of human NCI/ADR-RES cells assessed as cell growth at 0.1 uM incubated for 48 hrs by sulforhodamine B assay relative to control; assay type: functional; settings: read-out: Activity
786-0 = experiment: Growth inhibition of human 786-0 cells assessed as cell growth at 0.1 uM incubated for 48 hrs by sulforhodamine B assay relative to control; assay type: functional; settings: 786-0, 48 h, read-out: Activity
CAKI-1 = experiment: Growth inhibition of human Caki1 cells assessed as cell growth at 0.1 uM incubated for 48 hrs by sulforhodamine B assay relative to control; assay type: functional; settings: CAKI-1, 48 h, read-out: Activity
SN12C = experiment: Growth inhibition of human SN12C cells assessed as cell growth at 0.1 uM incubated for 48 hrs by sulforhodamine B assay relative to control; assay type: functional; settings: read-out: Activity
NCI-H226 = experiment: Growth inhibition of human NCI-H226 cells assessed as cell growth at 1 uM incubated for 48 hrs by sulforhodamine B assay relative to control; assay type: functional; settings: NCI-H226, 48 h, read-out: Activity
NCI-H23 [4] = experiment: Growth inhibition of human NCI-H23 cells assessed as cell growth at 1 uM incubated for 48 hrs by sulforhodamine B assay relative to control; assay type: functional; settings: NCI-H23, 48 h, read-out: Activity
NCI-H322M = experiment: Growth inhibition of human NCI-H322M cells assessed as cell growth at 1 uM incubated for 48 hrs by sulforhodamine B assay relative to control; assay type: functional; settings: read-out: Activity
HCT-15 = experiment: Growth inhibition of human HCT15 cells assessed as cell growth at 1 uM incubated for 48 hrs by sulforhodamine B assay relative to control; assay type: functional; settings: HCT-15, 48 h, read-out: Activity
HT-29 = experiment: Growth inhibition of human HT-29 cells assessed as cell growth at 1 uM incubated for 48 hrs by sulforhodamine B assay relative to control; assay type: functional; settings: HT-29, 48 h, read-out: Activity
MDA-MB-468 [5] = experiment: Growth inhibition of human MDA-MB-468 cells assessed as cell growth at 1 uM incubated for 48 hrs by sulforhodamine B assay relative to control; assay type: functional; settings: MDA-MB-468, 48 h, read-out: Activity
K562 [6] = experiment: Growth inhibition of human K562 cells assessed as cell growth at 100 uM incubated for 48 hrs by sulforhodamine B assay relative to control; assay type: functional; settings: K562, 48 h, read-out: Activity
NCI-H23 [7] = experiment: Growth inhibition of human NCI-H23 cells assessed as cell growth at 100 uM incubated for 48 hrs by sulforhodamine B assay relative to control; assay type: functional; settings: NCI-H23, 48 h, read-out: Activity
KM12 = experiment: Growth inhibition of human KM12 cells assessed as cell growth at 100 uM incubated for 48 hrs by sulforhodamine B assay relative to control; assay type: functional; settings: KM12, 48 h, read-out: Activity
SK-MEL-5 [8] = experiment: Growth inhibition of human SK-MEL-5 cells assessed as cell growth at 100 uM incubated for 48 hrs by sulforhodamine B assay relative to control; assay type: functional; settings: SK-MEL-5, 48 h, read-out: Activity
[9] = read-out: LC50 (the source's name)
[10] = read-out: pLC50 (the source's name) (converted)

SMILES: O=C(Nc1cccc(-n2cc(-c3ccncc3)c(-c3cc(O)cc(Cl)c3)n2)c1)c1ccc(N2CCOCC2)c(C(F)(F)F)c1
- IC50 (A549): 1.64 µM
- GI50 (A549; read-out: GI50): 1.54 µM
- CC50 (A549; [9]): > 100 µM
- TGI (A549; read-out: TGI): 18 µM
- GI50 (A549; read-out: pGI50 (converted)): 1.66 µM
- CC50 (A549; [10]): > 100 µM
- TGI (A549; read-out: pTGI (converted)): 18.2 µM
- GI50 (COLO 205; read-out: GI50): 1.75 µM
- CC50 (COLO 205; [9]): > 100 µM
- TGI (COLO 205; read-out: TGI): 64.5 µM
- GI50 (COLO 205; read-out: pGI50 (converted)): 17.4 µM
- CC50 (COLO 205; [10]): > 100 µM
- TGI (COLO 205; read-out: pTGI (converted)): 64.6 µM
- IC50 (HCT-116): 1.96 µM
- GI50 (HCT-116; read-out: GI50): 1.96 µM
- CC50 (HCT-116; [9]): > 100 µM
- TGI (HCT-116; read-out: TGI): > 100 µM
- GI50 (HCT-116; read-out: pGI50 (converted)): 1.95 µM
- CC50 (HCT-116; [10]): > 100 µM
- TGI (HCT-116; read-out: pTGI (converted)): > 100 µM
- GI50 (T47D; read-out: GI50): 3.81 µM
- CC50 (T47D; [9]): > 100 µM
- TGI (T47D; read-out: TGI): > 100 µM
- GI50 (T47D; read-out: pGI50 (converted)): 3.8 µM
- CC50 (T47D; [10]): > 100 µM
- TGI (T47D; read-out: pTGI (converted)): > 100 µM
- IC50 (MDA-MB-468 [1]): 3.42 µM
- GI50 (MDA-MB-468 [1]; read-out: GI50): 3.42 µM
- CC50 (MDA-MB-468 [1]; [9]): > 100 µM
- TGI (MDA-MB-468 [1]; read-out: TGI): 43.3 µM
- GI50 (MDA-MB-468 [1]; read-out: pGI50 (converted)): 3.39 µM
- CC50 (MDA-MB-468 [1]; [10]): > 100 µM
- TGI (MDA-MB-468 [1]; read-out: pTGI (converted)): 43.7 µM
- growth at 0.01 µM (RPMI-8226): 104%
- growth at 0.01 µM (SF-268): 101%
- growth at 0.01 µM (SNB-19): 101%
- growth at 0.01 µM (LOX IMVI): 100%
- growth at 0.01 µM (UACC-62): 96%
- growth at 0.01 µM (OVCAR-5): 52%
- growth at 0.01 µM (MCF7): 91%
- growth at 0.1 µM (K562 [2]): 100%
- growth at 0.1 µM (SNB-75): 83%
- growth at 0.1 µM (SK-MEL-5 [3]): 91%
- growth at 0.1 µM (NCI/ADR-RES): 103%
- growth at 0.1 µM (786-0): 94%
- growth at 0.1 µM (CAKI-1): 93%
- growth at 0.1 µM (SN12C): 98%
- growth at 1 µM (NCI-H226): 90%
- growth at 1 µM (NCI-H23 [4]): 92%
- growth at 1 µM (NCI-H322M): 57%
- growth at 1 µM (HCT-15): 35%
- growth at 1 µM (HT-29): 94%
- growth at 1 µM (MDA-MB-468 [5]): 75%
- growth at 100 µM (K562 [6]): -24%
- growth at 100 µM (NCI-H23 [7]): -12%
- growth at 100 µM (KM12): 4%
- growth at 100 µM (SK-MEL-5 [8]): -72%
